Row | melting point [°C] | SMILES
1 | 249 to 252 | O=C(O)Cn1c(=O)sc2cc(Br)c(Cl)cc21
2 | 86 to 87 | CCOC(=O)C(CC)Cc1ccc(N2C(=O)c3ccccc3C2=O)cc1 (stereo not drawn)
3 | 168 | OC1(c2cccc3[nH]ccc23)CCN(CCOc2ccccc2)CC1
4 | 115 to 117 | CCOC(=O)C1CCc2[nH]c3ccc(F)cc3c2C1 (stereo not drawn)
5 | 203 to 205 | NS(=O)(=O)C1C=CC=CC1(CCNC(=O)C=Cc1cccs1)OCCOC(F)(F)F (stereo not drawn)
6 | 245 to 248 | O=C(O)c1ccc(-c2coc3ccc(-c4ccccc4)cc23)cc1
7 | > 200 | N#Cc1c(N2CCc3ccccc3CC2)nc(N)[nH]c1=O
8 | 120 to 122 | CCOC(=O)c1c(O)c2cccnc2n(CC)c1=O
9 | 114 to 115 | CC(CSC(=S)c1ccc(F)cc1)C(=O)N1CCCC1C(=O)O (stereo not drawn)
10 | 196 | ON=C1CCc2c([nH]c3ccccc23)C1
11 | 72 to 73 | CCCN(CCC)[C@H]1COc2c(F)ccc(C(=O)NC)c2C1
12 | 139 to 141 | Cn1nc(Br)c(I)c1-c1ccc(F)cc1Cl
13 | 149 to 151 | CCCOc1ccc(-c2ccc3c(c2)C=C(C(=O)Nc2ccc(CN(C)C4CCOCC4)cc2)CCN3C)cc1
14 | 82 to 84 | COc1ccc(C(=O)NCCn2c(C)ccc2C)cc1OC
15 | 100 to 101 | CC(O)=C1C(=O)CC(c2ccccc2Cl)CC1=O (stereo not drawn)
16 | 112 to 113 | CCCCS(=O)Cc1ccc(CCl)cc1 (stereo not drawn)
17 | 128 to 129 | CC(C)Cc1nc2ccc(C(N)=O)cc2c(-c2ccccc2)c1CN
18 | 148 to 150 | CN1C(=O)CC[C@]2(C)c3ccc(-c4ccc(Oc5ccccc5)cc4)cc3CC[C@@H]12
19 | 207 to 208 | CCc1nc(=O)c2ccccc2n1Cc1ccc(-c2ccccc2C#N)cc1
20 | 245 to 247 | N[C@@H]1CN(c2c(F)cc3c(=O)c(C(=O)O)cn(C4CC4)c3c2F)C[C@@H]1n1ccnn1 (relative stereo)
21 | 129 to 130 | COc1cc(C(=O)Cc2ccccc2)cc([N+](=O)[O-])c1O
22 | 236 to 238 | N=CN1C(C(=O)NN)C(Sc2ccccc2)=CC(=O)N1c1ccccc1 (stereo not drawn)
23 | 180 to 183 | Cc1ccc(S(=O)(=O)Oc2ccc(S(=O)(=O)c3c(C(C)C)cn4ccccc34)cc2)cc1

Row | melting point [°C] | SMILES
24 | 210 to 215 | NC1=C([C@H]2CC[C@H](c3ccc(Cl)cc3)CC2)C(=O)c2ccccc2C1=O
25 | 147 to 148 | O=Cc1c[nH]cc1-c1ccccc1Cl
26 | 150 to 151 | COc1ccc(Cn2c(Br)nc3c(-c4ccco4)ncnc32)cc1
27 | 112 to 115 | CN(CCOc1ccc2c(c1)OC(C)(C)C=C2c1ccc2ccccc2c1)Cc1ccccc1
28 | 188 to 193 | c1ccc(Nc2ncc3cc4ccccc4n3n2)cc1
29 | 66 to 68 | CCOC(=O)C(=CNc1cccccc1=O)C(=O)OCC
30 | 249 to 251 | N=C(NO)c1ccccc1-n1cnc2cnc3ccc(-c4ccccc4)cc3c21
31 | 252 to 253 | CC(=NNC(=N)N)c1sc(-c2ccc(C(C)(C)C)cc2)nc1C
32 | 197 to 200 | N#Cc1cnn(-c2ccccn2)c1N
33 | 75 to 76 | CC1(C)CC(=O)CC(C)(C)N1C#N
34 | 80 to 81 | CON=C(C(=O)O)C1(CCl)OCCO1
35 | 90 | CCCCS(=O)(=O)N(Cc1ccc(-c2ccccc2-c2nnn[nH]2)cc1)[C@@H](C)C(=O)O
36 | 124 to 125 | COc1ccc(S(=O)(=O)CCNC(=O)N2CCCC2=O)cc1
37 | 102 to 104 | COC(C)(C)C(C#N)=NO
38 | 108 to 109 | CSCS[C@H](C)[C@](O)(Cn1cncn1)c1ccc(F)cc1F
39 | 214 to 215 | CC1(C)CC(NC(=O)c2cc(Cl)cc(NC=O)c2O)CC(C)(C)C1
40 | 134 to 136 | CC(=O)N(Cc1ccc(Cl)cc1Cl)c1cncnc1
41 | 202 to 205 | CC(=O)Nc1cccc(Oc2cc(-c3ccc(C(F)(F)F)cc3)ncn2)c1
42 | 151 to 153 | Cc1ccccc1-c1nsc(S(=O)(=O)N=CN2CCOCC2)n1
43 | 154 to 155 | CC(CCc1cc2cccnc2n(-c2cccc([N+](=O)[O-])c2)c1=O)c1ccncc1 (stereo not drawn)
44 | 100 to 110 | COCCc1cccc2oc(C(=O)Nc3ccc(-c4ccc(S(=O)(=O)NC(C(=O)O)C(C)C)cc4)cc3)c(C)c12 (stereo not drawn)
45 | 100 | O=C(O)COCCN1CCN(C(c2ccccc2)c2ccccc2)CC1
46 | 206 | CNC(=S)NCCN1CCC(Nc2nc3cncnc3n2Cc2ccc(F)cc2)CC1

Row | melting point [°C] | SMILES
47 | 154 to 156 | CCCn1c(=O)c2c(NC)n(C(=O)C(C)C)nc2n(Cc2cccc(Cl)c2)c1=O
48 | 132 to 134 | O=C(C=Cc1cccnc1)NCCCCC1CCN(C(=O)N(c2ccccc2)c2ccccc2)CC1
49 | 196 to 198 | CCc1nc2cnc3cc(C=CC(=O)N(C)C)ccc3c2n1CC(C)(C)O
50 | > 250 | O=C(O)c1ccc2cc(-c3cc4ccccc4o3)ccn2c1=O
51 | 72 to 73 | Cc1cc(C)c2c(c1C)OCC2c1ccc(Br)cc1 (stereo not drawn)
52 | 191 to 193 | CC(=O)Sc1c(C)nn2c3ccccc3n(C(C)=O)c12
53 | 97 to 101 | CC12CCC3c4ccc(Cl)cc4CCC3C1CCC2NCc1cccc(C(F)(F)F)c1 (stereo not drawn)
54 | 157 to 158 | O=C(O)c1cccc(Oc2ncccc2C(=O)NCc2ccccc2)c1
55 | 258 to 259 | CC(C)(C)COc1ccc(C2=CC=CN3CCS(=O)(=O)N=C23)cc1
56 | 170 to 180 | CC1(C)Oc2ccc(C#N)cc2[C@@H](NC(=O)Nc2cccc(-c3cnc[nH]3)c2)[C@@H]1O
57 | 146 to 148 | Cc1ccc(NS(=O)(=O)c2cc(C)c3cc(C(C)C)ccc(C)c2-3)cc1
58 | 133 to 134 | COc1cc(C=O)ccc1OCc1nc(-c2ccccc2)sc1C
59 | 125 to 126 | CCc1noc(-c2ncn(-c3cccc(Cl)c3)c2COC)n1
60 | 168 | Cc1cc(C)cc(-c2cc(O)c(Sc3ccccc3CC3CC3)c(=O)o2)c1
61 | 233 to 234 | O=C(O)C1CNC(C(=O)O)c2[nH]c3ccc(F)cc3c21 (stereo not drawn)
62 | 211 to 213 | N#Cc1ccc(N(Cc2ccc(OCc3ccccc3)cc2)n2cnnc2)cc1-c1ccc(F)cc1
63 | 94 to 97 | O=c1oc2c(c(O)c1C(C1CC1)C1CC1)CCCCCC2Cc1ccccc1 (stereo not drawn)
64 | 181 to 186 | CCc1cc(Nc2ccc(Sc3ccncc3)cc2)nc(N)n1
65 | 90 | OCC(CO)Oc1ccc(I)cc1
66 | 107 | CCOc1ccc2[nH]c(=O)n(CCN3CCOCC3)c2c1
67 | 35 to 36 | CC(C)(C)C(=O)OC1CCCCC1=O (stereo not drawn)
68 | 222 to 224 | CC(=O)NCCn1ccc2ncnc(Nc3ccc(Oc4cccc5sncc45)c(Cl)c3)c21
69 | 226 to 228 | CCn1cc(C(=O)O)c(=O)c2cc(F)c(N3CCN(C)C(c4ccsc4)C3)cc21 (stereo not drawn)

Row | SMILES | melting point [°C]
70 | CC1CCC(=O)N1CC(=O)NCCN1C(C)CCCC1C (stereo not drawn) | 115 to 116
71 | CC(=O)c1ccc(-n2c(CCl)nc3ccccc3c2=O)cc1 | 180 to 181
72 | CON=C(N)C1=Nc2ccc(Cl)cc2C(c2ccccc2F)=NC1 | 120 to 124
73 | CCOC(=O)Nc1ncc(-c2nc3ccccc3c(=O)n2-c2ccccc2OC)s1 | 263 to 264

— a melting point compilation (Tetko et al.; mined from patent text by program, amines drawn as free bases though some values may be those of a salt)
